Data taken from patent US20200237871A1, “METHODS FOR MITIGATING LIVER INJURY AND PROMOTING LIVER HYPERTROPHY, REGENERATION AND CELL ENGRAFTMENT IN CONJUNCTION WITH RADIATION AND/OR RADIOMIMETIC TREATMENTS” (Janssen Pharmaceutica NV, priority 2019, published 2020).
Entries after “also recorded” stand apart in the source; their conditions may differ.

Legend:
Format in all cases: in vivo, mouse
Hemophilia A mice = experiment: Survival after tail bleed challenge (Example 6); details: HIR+LSECs+drug, control Hemophilia A mice 100% died within 5 days
Description: 8-16-week-old male C57/BL6 mice, 8-16-week-old female and male B6129SF2/J mice (donor for isolating LSECs) and 8-16-week-old female and male Hemophilia mice (F^8tm1Kaz) mice were used in this study. Mice were housed in groups of up to 5 in micro-isolator cages on stainless steel racks (Allentown, Inc., Allentown, N.J.) with a total floor space of 500 cm^2. The cages utilized an external water bottle and a dual feeder rack (Fisher Scientific, Hampton, N.H.). These cages were stored in the storage rack which provided temperature, humidity, and ventilation control to each individual cage (Allentown, Inc.). Bed-o'Cobs ⅛″ (Fisher Scientific) were used as bedding material in each cage.
The methods were identical to Experiment 5 as described above; including the preparation of test articles (solutions of RWJ-800088 and AdHGF), isolation and transplant of LSECs, and Hepatic irradiation.
The livers of mice were irradiated at 50 Gy by using an X-ray irradiator (SARRP). At 24 hours post-irradiation, the LSECs (1×10^6 cells/mouse) were injected to the mouse through tail vein. An incision was made in the tail from each mouse at day 60 after hepatic irradiation (HIR) and subjected to the bleeding test.
RWJ-800088 (300 μg/kg) was administrated subcutaneously at 10 min after LSEC transplantation. AdHGF at 1×10^9 PFU/mouse was administrated intraperitoneally at 24 hours after LSEC transplantation. […]

DPPIV KO mice = experiment: Engraftment of transplanted LSECs and hepatocytes by DPPIV immunostaining after HIR (Example 7); details: Study A
Method: 8-12-week-old male Di-peptyl peptidase IV knockout (Dppiv^−/−) mice and 8-12-week-old male C57BL/6 mice were used in this study.
The methods were identical to Experiment 5 as described above; including the preparation of test articles (solutions of RWJ-800088), isolation and transplant of LSECs, and Hepatic irradiation. In addition, Romiplostim was purchased from pharmacy and came in 250 μg powder. It was reconstituted per manufacturers description using solvent for solution for injection. After reconstitution, a deliverable volume of 0.5 mL solution contained 250 μg of romiplostim (500 μg/mL).
Animals were weighed in the beginning of the experiment.
The mice were transplanted with DPPIV^+ 5×10^5 liver sinusoidal endothelial cells (LSECs) intrasplenically 4 or 5 days later. The mice were then injected with 300 μg/kg of RWJ-800088 or Romiplostim intraperitoneally 10 minutes after LSEC transplantation as shown in Table 7.
The mice were then monitored until they made a full recovery and returned to the cage. The mice were followed for 2 and 5 months and necropsied. The liver was excised and prepared for the frozen section. The immunostaining of DPPIV activity was performed to examine the repopulation of the transplanted DPPIV^+ cells in the liver. […]

cirrhotic mice = experiment: Lobe weight ratio / hypertrophy of non-irradiated lobe in cirrhotic mice after HIR (Example 5)
Method: Male C57BL/6 DPPIV knockout male mice (10-14 weeks) were injected intraperitoneally with carbon tetrachloride (CCl4) twice a week for a minimum of 12 weeks until a maximum of when 5 out of 30 mice perish from the CCl4 injection. Immediately after, the animals were randomly distributed into the experimental groups.
Image-guided external beam irradiation was performed using a small animal radiation research platform (SARRP, Xstrahl Inc., Suwanee, Ga.). Mice were given gastrografin contrast through gavage to improve visualization of the gastrointestinal (GI) tract. […]
The methods were identical to Experiment 4 as described above with the exception that the CCl4 dose was increased to 20% in olive oil over 12 weeks. To evaluate the effect of RWJ-800088+Liver Sinusoidal Endothelial Cells (LSEC), RWJ-800088+Plerixafor (a selective inhibitor of CXCR4 administered pre- and post-irradiation) on radiation induced liver disease as measured by SPECT-CT in cirrhotic mice after single hepatic irradiation (HIR) at 50 Gy. […]
The dosing solution of RWJ-800088 was prepared as described in Experiment 4. […] The number of viral particles and infectious units' ratio was determined by infecting 293 cells at various dilutions, followed by immunocytochemical staining for adenoviral hexons. The infectious titer was calculated from the number of plaques formed per 1,000 viral particles. […]

methoxypolyethyleneglycol20000-propionyl-L-Isoleucyl-L-Glutamyl-Glycyl-L-Prolyl-L-Threonyl-L-Leucyl-L-Arginyl-L-Glutaminyl-L-2-Naphthylalanyl-L-Leucyl-L-Alanyl-L-Alanyl-L-Arginyl-Sarcosyl-Ne-(methoxypolyethyleneglycol20000-propionyl-L-Isoleucyl-L-Glutamyl-Glycyl-L-Prolyl-L-Threonyl-L-Leucyl-L-Arginyl-L-Glutaminyl-L-2-Naphthyl alanyl-L-Leucyl-L-Alanyl-L-Alanyl-L-Arginyl-Sarcosyl-)-Lysinamide [RWJ-800088]
survival 30 days post tail bleed challenge (Hemophilia A mice): 100% | repopulation of LSECs in the irradiated liver tissue (DPPIV immunostaining) (DPPIV KO mice; 2 months after HIR, 50 Gy, LSECs 4 or 5 days after HIR, 300 μg/kg intraperitoneally 10 minutes after LSEC transplantation): repopulation of LSECs in the irradiated liver tissue was observed | DPPIV staining of liver lobes (DPPIV KO mice; 5 months after HIR, two surviving mice (mouse 1: median, right, left lobes; mouse 2: median and right lobes), listed as RWJ-80088): extensively positive staining; also recorded: strong DPPIV staining | DPPIV staining of 4 different liver lobes (DPPIV KO mice; one mouse at 2 months after HIR, median lobe least area covered): All 4 lobes showed positive staining | Average Ratio of Right Lobe to Left Lobe Weight (cirrhotic mice; HIR + LSEC transplant (48 hours after HIR) + drug, 4 months post-HIR): 1.35 | hypertrophy of the non-irradiated lobe (cirrhotic mice; cirrhotic mice, 50 Gy HIR, RWJ-800088 with LSEC transplants): increase in hypertrophy
